The values below come from paper PMC6308159 (Frontiers in Public Health, 2018).

Molecules are shown by their SMILES. Where “and” joins values, the source holds several entries; their conditions need not be identical. Identical values can stand only once. Like-named read-outs stand apart in the source and are kept apart here. Some results are limits rather than exact numbers.

The subject of series [1] is primary human endothelial colony-forming cells (ECFCs), cord blood clones.
Series [2] deals with polyclonal ECFC line CB002. The series is classed as cell-based, human. The note with it: 0.390625 μM; 48 h.
Series [3] deals with primary human endothelial colony-forming cells (ECFCs), cord blood clones. The series is described as follows: cells. The note with it: read-out: IC50, range between individual ECFC clones.
The conditions of series [4]: cited from earlier work.
A short description of series [5]: in vitro. The note with it: human.
The mark [6] stands for this setting: read-out: IC50, range between individual ECFC clones.

On to `[Cl-].[Cl-].[Zn+2]` [ZnCl2, Zinc Chloride], for which, in series [1], the cytotoxicity entry was “cytotoxic” and the effect on viability entry is reported as “did not affect viability”.
For `O=[As][O-].[Na+]` [NaAsO2, Sodium (meta)arsenite], in series [2], the “raw CFDA fluorescence per well” value was 4689 and 4248 and 2550 and 2844 and 2369 and 3435. In addition, in series [1], the “IC10, range between individual ECFC clones” value was in the range of 1.1 to 5.0 µM; the “average IC10 (mean and standard deviation)” value is 2.4 ± 1.16 µM; the cells killed amounted to 100%. Also, the IC50 in series [1] (read-out: IC50 ± SD) is 7.5 ± 4.7 µM.
For `O.[Cl][Cd][Cl]` [CdCl2, Cadmium Chloride Hydrate], in series [1], the “IC10, range between individual ECFC clones” value lay within 4.2 to 9.3 µM; the “average IC10 (mean and standard deviation)” value is 6.7 ± 1.85 µM; the cells killed is listed as around 100%; the cytotoxicity entry is recorded as “not cytotoxic”. Moreover, the half-maximal inhibitory concentration (IC50) in series [1] (setting [6]) was 12.3 to 18 µM.
As for `CC1=C(C/C=C(\C)CCC[C@H](C)CCC[C@H](C)CCCC(C)C)C(=O)c2ccccc2C1=O` [Phytonadione, phytonadione, reference compound], in series [1], the “effect on ECFC viability / toxicity” value was “not toxic”.
Consider `O.O.O.O.O.O.O.O=[As]([O-])([O-])O.[Na+].[Na+]` [Na2HAsO4, Sodium arsenate dibasic heptahydrate], for which, in series [1], the cells killed is listed as 0% and the “effect on ECFC viability / toxicity” value is listed as “no effect”.
In the case of `CC1=CC(=O)c2ccccc2C1=O` [Menadione, 2-methyl-1,4-naphthoquinone, reference compound], in series [1], the “IC10, range between individual ECFC clones” value fell in the range of 5.6 to 19.0 µM; the “average IC10 (mean and standard deviation)” value was 11.5 ± 5.03 µM; the cells killed turned out to be 100%; the live cells is listed as below 50%. Also, the IC50 in series [3] is 8 to 26.3 µM. In series [4] (observed in a clinical setting), the blood level was 500 to 2000 nM. Further, the “level found in the blood” value in series [4] (volunteers after ingestion of 10 mg menadione sodium bisulfite tablets) is listed as 20 nM. In series [5], this compound had a viability at 10 µM of 100%.
In the case of `CCC[CH2][Sn]([Cl])([CH2]CCC)[CH2]CCC` [TBT, Tributyltin Chloride], in series [1], the “IC10, range between individual ECFC clones” value lay in the range of 0.2 to 0.5 µM; the “average IC10 (mean and standard deviation)” value was 0.3 ± 0.11 µM. Also, the IC50 in series [1] (setting [6]) fell in the range of 1.2 to 2.3 µM.
